Reference: patent publication US20230150929A1, “SELECTIVE NON-CYCLIC NUCLEOTIDE ACTIVATORS FOR THE CAMP SENSOR EPAC1” (The Board of Regents of The University of Texas System, priority 2020, published 2023)

Biological target: T1, EPAC1-CNBD (Homo sapiens, UniProt O95398)
T1 sequence (O95398 169-318 isoform O95398-3): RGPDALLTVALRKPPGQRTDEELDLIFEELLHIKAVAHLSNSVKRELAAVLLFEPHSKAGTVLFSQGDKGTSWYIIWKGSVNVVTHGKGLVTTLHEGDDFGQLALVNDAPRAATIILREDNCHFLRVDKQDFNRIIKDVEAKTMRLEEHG
Assay: 8-NBD-cAMP competition binding assay, EPAC1-CNBD
Conditions: for EPAC1 binding potency / affinity in words: SAR comment on RFI, mostly relative to 3 or 9a; for RFI (%) (relative fluorescence intensity), Table 1 / RFI (%) (relative fluorescence intensity), Table 2 / RFI (%) (relative fluorescence intensity), Table 3 / RFI (%) (relative fluorescence intensity), Table 4: compound 10 µM, EPAC1-CNBD 0.8 µM, 8-NBD-cAMP 62.5 nM, mean ± SEM, lower RFI = stronger binding

## Cc1cc(C)c(S(=O)(=O)NC(=O)COc2cccc3ccccc23)c(C)c1 [Compound 9b, N-(Mesitylsulfonyl)-2-(naphthalen-1-yloxy)acetamide]
  EPAC1 binding potency / affinity in words: no significant improvement
  RFI (%) (relative fluorescence intensity), Table 1: 94 ± 5%

## Cc1cc(C)c(S(=O)(=O)NC(=O)COc2ccc3cccnc3c2)c(C)c1 [Compound 9c, N-(Mesitylsulfonyl)-2-(quinolin-7-yloxy)acetamide]
  EPAC1 binding potency / affinity in words: no significant improvement
  RFI (%) (relative fluorescence intensity), Table 1: 92 ± 2%

## CC(=O)c1c(OCC(=O)NS(=O)(=O)c2c(C)cc(C)cc2C)ccc2ccccc12 [Compound 9d, 2-((1-Acetylnaphthalen-2-yl)oxy)-N-(mesitylsulfonyl)acetamide]
  EPAC1 binding potency / affinity in words: no significant improvement
  RFI (%) (relative fluorescence intensity), Table 1: 104 ± 7%

## COc1ccc2ccc(OCC(=O)NS(=O)(=O)c3c(C)cc(C)cc3C)cc2c1 [Compound 9e, N-(Mesitylsulfonyl)-2-((7-methoxynaphthalen-2-yl)oxy)acetamide]
  RFI (%) (relative fluorescence intensity), Table 1: 49 ± 3%
From RFI at 10 µM
  fold improvement in binding potency compared to 9a: about 1.7 fold

## Cc1cc(C)c(S(=O)(=O)NC(=O)COc2ccc3c(c2)CCCC3)c(C)c1 [Compound 9f, N-(Mesitylsulfonyl)-2-((5,6,7,8-tetrahydronaphthalen-2-yl)oxy)acetamide]
  EPAC1 binding potency / affinity in words: slightly decreased binding potency
  RFI (%) (relative fluorescence intensity), Table 1: 77 ± 2%

## Cc1cc(C)c(S(=O)(=O)NC(=O)CNc2cccc(Cl)c2)c(C)c1 [Compound 9h, 2-((3-Chlorophenyl)amino)-N-(mesitylsulfonyl)acetamide]
  RFI (%) (relative fluorescence intensity), Table 1: 88 ± 9%

## Cc1cc(C)c(S(=O)(=O)NC(=O)CSc2nc3ccccc3c(=O)[nH]2)c(C)c1 [Compound 9i, N-(Mesitylsulfonyl)-2-((4-oxo-3,4-dihydroquinazolin-2-yl)thio)acetamide]
  RFI (%) (relative fluorescence intensity), Table 1: 95 ± 4%

## Cc1cc(C)c(S(=O)(=O)NC(=O)CN2CCc3ccccc3C2)c(C)c1 [Compound 9j, 2-(3,4-Dihydroisoquinolin-2(1H)-yl)-N-(mesitylsulfonyl)acetamide]
  RFI (%) (relative fluorescence intensity), Table 1: 102 ± 1%

## COc1cc2c(cc1OC)CN(CC(=O)NS(=O)(=O)c1c(C)cc(C)cc1C)CC2 [Compound 9k, 2-(6,7-Dimethoxy-3,4-dihydroisoquinolin-2(1H)-yl)-N-(mesitylsulfonyl)acetamide]
  RFI (%) (relative fluorescence intensity), Table 1: 102 ± 5%

## Cc1cc(C)c(S(=O)(=O)NC(=O)CN2CCn3c(nnc3C(F)(F)F)C2)c(C)c1 [Compound 9l, N-(Mesitylsulfonyl)-2-(3-(trifluoromethyl)-5,6-dihydro-[1,2,4]triazolo[4,3-a]pyrazin-7(8H)-yl)acetamide]
  RFI (%) (relative fluorescence intensity), Table 1: 104 ± 2%

## Cc1cc(C)c(S(=O)(=O)NC(=O)CN2CCN(c3ccccn3)CC2)c(C)c1 [Compound 9m, N-(Mesitylsulfonyl)-2-(4-(pyridin-2-yl)piperazin-1-yl)acetamide]
  RFI (%) (relative fluorescence intensity), Table 1: 119 ± 8%

## Cc1ccc(S(=O)(=O)NC(=O)COc2ccc3cc(Cl)ccc3c2)c(C)c1 [Compound 9n, 2-((6-Chloronaphthalen-2-yl)oxy)-N-((2,4-dimethylphenyl)sulfonyl)acetamide]
  RFI (%) (relative fluorescence intensity), Table 2: 50 ± 2%

## Cc1ccc(S(=O)(=O)NC(=O)COc2ccc3cc(F)ccc3c2)c(C)c1 [Compound 9o, 2-((6-Fluoronaphthalen-2-yl)oxy)-N-((2,4-dimethylphenyl)sulfonyl)acetamide]
  RFI (%) (relative fluorescence intensity), Table 2: 55 ± 1%

## Cc1ccc(S(=O)(=O)NC(=O)COc2ccc3ccc(Cl)cc3c2)c(C)c1 [Compound 9p, 2-((7-Chloronaphthalen-2-yl)oxy)-N-((2,4-dimethylphenyl)sulfonyl)acetamide]
  RFI (%) (relative fluorescence intensity), Table 2: 66 ± 2%

## Cc1ccc(S(=O)(=O)NC(=O)COc2cccc3ccccc23)c(C)c1 [Compound 9q, N-((2,4-dimethylphenyl)sulfonyl)-2-(naphthalen-1-yloxy)acetamide]
  RFI (%) (relative fluorescence intensity), Table 2: 71 ± 1%

## Cc1ccc(S(=O)(=O)NC(=O)COc2ccc3[nH]ccc3c2)c(C)c1 [Compound 9r, 2-((1H-Indol-5-yl)oxy)-N-((2,4-dimethylphenyl)sulfonyl)acetamide]
  RFI (%) (relative fluorescence intensity), Table 2: 91 ± 2%

## Cc1ccc(S(=O)(=O)NC(=O)COc2ccc3[nH]ncc3c2)c(C)c1 [Compound 9s, 2-((1H-Indazol-5-yl)oxy)-N-((2,4-dimethylphenyl)sulfonyl)acetamide]
  RFI (%) (relative fluorescence intensity), Table 2: 94 ± 4%

## Cc1cc(C)c(S(=O)(=O)NC(=O)CSc2ccc3ccccc3c2)c(C)c1 [Compound 12a, N-(Mesitylsulfonyl)-2-(naphthalen-2-ylthio)acetamide]
  EPAC1 binding potency / affinity in words: completely inhibit EPAC binding potency
  RFI (%) (relative fluorescence intensity), Table 3: 92 ± 2%

## Cc1cc(C)c(S(=O)(=O)NC(=O)CNc2ccc3ccccc3c2)c(C)c1 [Compound 12b, N-(Mesitylsulfonyl)-2-(naphthalen-2-ylamino)acetamide]
  RFI (%) (relative fluorescence intensity), Table 3: 97 ± 5%

## Cc1cc(C)c(S(=O)(=O)NCCOc2ccc3ccccc3c2)c(C)c1 [Compound 12c, 2,4,6-Trimethyl-N-(2-(naphthalen-2-yloxy)ethyl)benzenesulfonamide]
  EPAC1 binding potency / affinity in words: partial or complete loss of binding activity
  RFI (%) (relative fluorescence intensity), Table 3: 105 ± 4%

## Cc1cc(C)c(S(=O)(=O)N2CCC(Oc3ccc4ccccc4c3)CC2)c(C)c1 [Compound 12d, 1-(Mesitylsulfonyl)-4-(naphthalen-2-yloxy)piperidine]
  EPAC1 binding potency / affinity in words: partial or complete loss of binding activity
  RFI (%) (relative fluorescence intensity), Table 3: 105 ± 3%

## Cc1cc(C)c(S(=O)(=O)NC(=O)C(F)Oc2ccc3ccccc3c2)c(C)c1 (stereo not drawn) [Compound 12e, 2-Fluoro-N-(mesitylsulfonyl)-2-(naphthalen-2-yloxy)acetamide]
  RFI (%) (relative fluorescence intensity), Table 3: 82 ± 4%

## Cc1ccc(S(=O)(=O)NC(=O)C(C)(C)Oc2ccc3ccccc3c2)c(C)c1 [Compound 12f, N ((2,4-Dimethylphenyl)sulfonyl)-2-methyl-2-(naphthalen-2-yloxy)propenamide]
  EPAC1 binding potency / affinity in words: partial or complete loss of binding activity
  RFI (%) (relative fluorescence intensity), Table 3: 76 ± 3%

## Cc1ccc(S(=O)(=O)NCCOc2ccc3ccccc3c2)c(C)c1 [Compound 12g, 2,4-Dimethyl-N-(2-(naphthalen-2-yloxy)ethyl)benzenesulfonamide]
  EPAC1 binding potency / affinity in words: partial or complete loss of binding activity
  RFI (%) (relative fluorescence intensity), Table 3: 81 ± 3%

## Cc1cc(C)cc(S(=O)(=O)NC(=O)COc2ccc3ccccc3c2)c1 [Compound 25a, N-((3,5-Dimethylphenyl)sulfonyl)-2-(naphthalen-2-yloxy)acetamide]
  RFI (%) (relative fluorescence intensity), Table 4: 38 ± 2%
From RFI at 10 µM
  fold binding potency increase versus compound 3: about 1.6 fold

## O=C(COc1ccc2ccccc2c1)NS(=O)(=O)C1CCCCC1 [Compound 25aa, N-(Cyclohexylsulfonyl)-2-(naphthalen-2-yloxy)acetamide]
  EPAC1 binding potency / affinity in words: complete loss of affinity
  RFI (%) (relative fluorescence intensity), Table 4: 81±3%

## O=C(COc1ccc2ccccc2c1)NS(=O)(=O)c1cccc(-c2ccoc2)c1 [Compound 25ab, N-3-(Furan-3-yl)phenylsulfonyl-2-(naphthalene-2-yloxy)acetamide]
  RFI (%) (relative fluorescence intensity), Table 4: 53 ± 2%

## O=C(COc1ccc2ccccc2c1)NS(=O)(=O)c1cccc(-c2ccccc2)c1 [Compound 25ac, N-([1,1′-Biphenyl]-3-ylsulfonyl)-2-(naphthalene-2yloxy)acetamide]
  RFI (%) (relative fluorescence intensity), Table 4: 35± 1%

## COC(=O)c1cccc(S(=O)(=O)NC(=O)COc2ccc3ccccc3c2)c1 [Compound 25ad, Methyl 3-(N-(2-(naphthalene-2-yloxy)acetyl)sulfamoyl)benzoate]
  RFI (%) (relative fluorescence intensity), Table 4: 71 ± 1%

## O=C(COc1ccc2ccccc2c1)NS(=O)(=O)c1ccccc1F [Compound 25b, N-((2-Fluorophenyl)sulfonyl)-2-(naphthalen-2-yloxy)acetamide]
  EPAC1 binding potency / affinity in words: decreased the binding potency
  RFI (%) (relative fluorescence intensity), Table 4: 69 ± 2%

## O=C(COc1ccc2ccccc2c1)NS(=O)(=O)c1cccc(F)c1 [Compound 25c, N-((3-Fluorophenyl)sulfonyl)-2-(naphthalen-2-yloxy)acetamide]
  EPAC1 binding potency / affinity in words: decreased the binding potency
  RFI (%) (relative fluorescence intensity), Table 4: 82 ± 4%

## O=C(COc1ccc2ccccc2c1)NS(=O)(=O)c1ccc(F)cc1 [Compound 25d, N-((4-Fluorophenyl)sulfonyl)-2-(naphthalen-2-yloxy)acetamide]
  EPAC1 binding potency / affinity in words: decreased the binding potency
  RFI (%) (relative fluorescence intensity), Table 4: 81 ± 4%

## COc1ccc(OC)c(S(=O)(=O)NC(=O)COc2ccc3ccccc3c2)c1 [Compound 25h, N-((2,5-Dimethoxyphenyl)sulfonyl)-2-(naphthalen-2-yloxy)acetamide]
  RFI (%) (relative fluorescence intensity), Table 4: 72 ± 4%
